A word on the Tmax: it is the time from dosing to the highest level. Usually AUC(0-t) stands for exposure summed from dosing to a finite time, without extrapolation to infinity. Broadly, the Cmax is the peak of the concentration-time curve.

Values joined by “and” are separate entries in the source; they are usually repeats but may differ in a detail not shown here. Identical values can stand only once. “Also recorded” adds a separate entry of the source.

Consider two compounds from patent publication US20120095019A1 (priority 2010, published 2012).

Series [1] is described as follows: 2-way crossover study of single-dose betrixaban alone and following 5 days of ketoconazole in healthy subjects (plasma/urine PK, safety). To be noted: for Cmax: ketoconazole Cmax. It counts as in vivo, human. An excerpt: Blood and urine samples were obtained at specific time intervals after dosing for pharmacokinetic evaluations.
For each subject, the total duration of the study was up to 11 weeks (4 weeks predose, 1 week in the study unit on 2 occasions separated by a 12- to 14-day washout period, and 3 weeks after the last dose until the termination visit).
Safety was monitored by adverse event monitoring, clinical laboratory testing (hematology, serum chemistry, and urinalysis), vital sign measurements (oral temperature, respiratory rate, pulse rate, and systolic and diastolic blood pressure), electrocardiograms, and physical examinations.

A short description of series [2]: 3-period crossover study of betrixaban and digoxin alone and in combination for 7 days in healthy subjects. It counts as in vivo, human. An excerpt: For each period, subjects reported to the clinical research unit on the day prior to Day 1 and remained there until Day 8 (at least until the last blood sample collection). The total duration of the study for each subject was 14 weeks: up to 4 weeks predose, approximately 1 week in the study unit on 3 occasions (with each treatment period separated by an approximate 2-week washout [i.e., 12 to 14 days]), and up to 3 weeks after the last dose until the Termination Visit. Serial blood samples and interval urine collections were obtained over the last dosing interval (Day 7 to 8) during each study period. Routine safety laboratory data was obtained at baseline during and after drug administration; additional safety laboratory and clinical data were collected.
All doses were taken under fasting conditions (no food starting from the midnight before dosing and continuing until 2 hours postdose).
Safety assessments included electrocardiogram (ECG) intervals, vital signs, laboratory parameters, and adverse events (AEs).
Mean and individual concentration-versus-time curves were plotted. […]
The 90% confidence intervals (CIs) for the difference in least squares means (test-reference, where test=drugs in combination and reference=drugs alone) was calculated for each parameter. […]

`CC(=O)N1CCN(c2ccc(OCC3COC(Cn4ccnc4)(c4ccc(Cl)cc4Cl)O3)cc2)CC1` (stereo not drawn) [ketoconazole]: the “ketoconazole CL/F, mean (SD)” value in series [1] (Day 1) is on record as 5.717 (2.373) L/h; in series [1] (Day-1), 7.954 (7.110) L/h. For the same compound, the “ketoconazole trough concentration, least squares geometric mean” value came to 769 ng/mL in series [1] (Day 1 12 hours), 1030 ng/mL in series [1] (Day 1 predose) and 1250 ng/mL in series [1] (Day-1 predose). The “increased exposure of ketoconazole [Cmax and AUC(0-12)] when given with betrixaban” value in series [1] (human, in vivo) is 21-22% and ~20%. The Tmax amounted to 2 h in series [1] (human, plasma, oral) and 2 h in series [1] (human, plasma, oral, 200 mg). Besides, the AUC(0-t) in series [1] (human, plasma, oral, 200 mg, ketoconazole AUC(0-12), geometric LS mean, Treatment R: ketoconazole 200 mg alone) stood at 30900 ng·h/mL; in series [1] (human, plasma, oral, 200 mg, ketoconazole plasma AUC(0-12), mean (SD), Day-1), 35300 ng·h/mL; in series [1] (human, plasma, oral, ketoconazole AUC(0-12), geometric LS mean, Treatment T: ketoconazole 200 mg co-administered with 40-mg betrixaban) it was 37300 ng·h/mL. The Cmax in series [1] (human, plasma, oral, 200 mg, geometric LS mean, Treatment R: ketoconazole 200 mg alone) is 5260 ng/mL; in series [1] (human, plasma, oral, 200 mg, mean (SD), Day-1), 5900 ng/mL; in series [1] (human, plasma, oral, geometric LS mean, Treatment T: ketoconazole 200 mg co-administered with 40-mg betrixaban), 6420 ng/mL; in series [1] (human, plasma, oral, mean (SD), Day 1 (day of betrixaban administration)), 6620 ng/mL. For the same compound, in series [1] (human, plasma, oral, 200 mg, Day-1 12 hours), the concentration at 12 h turned out to be 697 ng/mL.

On to `C[C@H]1O[C@@H](O[C@H]2[C@@H](O)C[C@H](O[C@H]3[C@@H](O)C[C@H](O[C@H]4CC[C@@]5(C)[C@H](CC[C@@H]6[C@@H]5C[C@@H](O)[C@]5(C)[C@@H](C7=CC(=O)OC7)CC[C@]65O)C4)O[C@@H]3C)O[C@@H]2C)C[C@H](O)[C@@H]1O` [digoxin], for which the “effect of co-administration of betrixaban on digoxin PK” value in series [2] (7 days) is “no impact; also recorded: no effect”. Also, in series [2] (human, plasma, oral, digoxin median tmax, second value of pair (digoxin alone by order)), the time of peak concentration (Tmax) stood at 1.01 h.
